In assay [1] the target is T1, mitochondrial complex III (Mus musculus, UniProt P00158).
T1 construct: the supernatant containing the mitochondria was pelleted at 14,000 g; endogenous in cells; host or cells: C2C12 cells, mitochondrial fraction
As to the kind of experiment: Complex III enzyme activity in mitochondrial fractions of C2C12 cells (cytochrome c reduction at 550 nm). It is filed as biochemical. The settings on record: compound at 100 μM; background by antimycin A (2.5 μM); n = 3 independent experiments. Here is the method: C2C12 pellets of 20·10^6 cells were snap frozen in liquid nitrogen and kept at −80° C. until use. For preparation of the mitochondrial fractions, tissues and cells were homogenized, resuspended in 10 mM Tris-HCl (pH 7.6), and snap frozen in aliquots as follows: cells were resuspended in 10 mM Tris-HCl and pottered, and sucrose was added (215 mM). The lysate was cleared of unbroken cells by centrifugation (10 minutes 600 g) after which the supernatant containing the mitochondria was pelleted at 14,000 g for 10 minutes, resuspended in 10 mM Tris-HCl (pH 7.6), and snap frozen in aliquots. Complex III enzyme activity was measured spectrophotometrically in duplicate as described before by determination of the cytochrome c reduction at 550 nm (Janssen et al., 2007; Mourmans et al., 1997; Rodenburg, 2011). For these measurements the following substrates were used: decylubiquinol (300 μM) and cytochrome c (50 μM). Background substraction was based on decylubiquinol auto-oxidation rates for FIG. 2, and on antimycin A (2.5 μM) for table 4. The enzyme activity was determined using the linear domain of the curve. These experiments were generally performed in small reaction volumes to increase throughput. Experiments in larger reaction volumes can improve reliability of obtained values, and are planned.

Assay [2] concerns the target T2, catalytic domain of the human HMG-CoA reductase (Homo sapiens, UniProt P04035).
T2 construct: containing the catalytic domain of the human HMG-CoA reductase; purchased Sigma-Aldrich CS-1090
T2 sequence (P04035 426-888 limits assumed): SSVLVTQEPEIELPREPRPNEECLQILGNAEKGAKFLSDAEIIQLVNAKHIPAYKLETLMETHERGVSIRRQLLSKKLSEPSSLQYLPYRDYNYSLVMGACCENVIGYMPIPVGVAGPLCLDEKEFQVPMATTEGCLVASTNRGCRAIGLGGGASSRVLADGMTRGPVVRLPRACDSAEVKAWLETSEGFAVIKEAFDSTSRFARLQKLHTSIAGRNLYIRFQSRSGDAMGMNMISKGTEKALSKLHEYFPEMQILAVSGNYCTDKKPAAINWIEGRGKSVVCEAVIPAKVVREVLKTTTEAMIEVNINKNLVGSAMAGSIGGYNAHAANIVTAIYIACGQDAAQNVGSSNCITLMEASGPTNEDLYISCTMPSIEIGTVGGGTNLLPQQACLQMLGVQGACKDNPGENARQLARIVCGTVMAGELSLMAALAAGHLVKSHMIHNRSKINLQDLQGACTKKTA
Nature of the assay: HMG-CoA reductase activity and inhibition assay (Sigma CS-1090 kit, NADPH oxidation at 340 nm). Type of assay: biochemical. To be noted: for HMGR activity (% of control) Mean (SEM): compound at 300 nM, n = 3 independent experiments. The method, then: The human HMG-CoA reductase activity and inhibition assays were performed using the HMG-CoA reductase Assay Kit from Sigma-Aldrich (Sigma CS-1090), containing the catalytic domain of the human HMG-CoA reductase. Enzyme activity was determined spectrophotometrically, measuring the oxidation of NADPH at 340 nm. The reaction mixture contained: 0.13 mM HMG-CoA, HMG-CoA reductase, and 50 mM Tris-HCl, (pH 7.5). After 15 min incubation at 37° C., the reaction was started with the addition of 0.13 mM NADPH, and monitored for 30 min. The enzyme activity was determined using the linear domain of the curve. These experiments were generally performed in small reaction volumes to increase throughput. Experiments in larger reaction volumes can improve reliability of obtained values, and are planned.

Molecules are shown by their SMILES. pIC50: −log10 of the molar value. Marks after values point to notes of the source that are not given here.

As for `CC(C)c1nc(N(C)S(C)(=O)=O)nc(-c2ccc(F)cc2)c1/C=C/[C@@H](O)C[C@@H](O)CC(=O)N(C)C` [rosuvastatin dimethylamide, (3R,5S,E)-7-(4-(4-fluorophenyl)-6-isopropyl-2-(N-methylmethylsulfonamido)-pyrimidin-5-yl)-3,5-dihydroxy-N,N-dimethylhept-6-enamide], the “complex III activity (% of control) Mean (SEM)” value in assay [1] was 88.90 (7.89) % of control. In assay [2], the “HMGR activity (% of control) Mean (SEM)” value is reported as 91.35 (15.32) % of control.

Regarding `CC(C)c1c(C(=O)Nc2ccccc2)c(-c2ccccc2)c(-c2ccc(F)cc2)n1CC[C@@H](O)C[C@@H](O)CC(=O)O` [atorvastatin carboxylic acid, reference compound], in assay [2], the “HMGR activity (% of control) Mean (SEM)” value is on record as 24.39 (8.91) % of control.

With `CC(C)c1nc(N(C)S(C)(=O)=O)nc(-c2ccc(F)cc2)c1/C=C/[C@@H](O)C[C@@H](O)c1nc(=O)o[nH]1` [rosuvastatin nor-oxo-oxadiazole, N-(5-((3S,5R,E)-3,5-dihydroxy-5-(5-oxo-2,5-dihydro-1,2,4-oxadiazol-3-yl)pent-1-en-1-yl)-4-(4-fluorophenyl)-6-isopropylpyrimidin-2-yl)-N-methylmethane-sulfonamide], in assay [1], the “complex III activity (% of control) Mean (SEM)” value is given as 143.50 (15.67) % of control. In assay [2], the “HMGR activity (% of control) Mean (SEM)” value is on record as 100.30 (7.82)^a % of control.

With `CC(C)c1c(C(=O)Nc2ccccc2)c(-c2ccccc2)c(-c2ccc(F)cc2)n1CC[C@@H]1C[C@H](O)CC(=O)O1` [atorvastatin lactone, 5-(4-fluorophenyl)-1-(2-((2R,4S)-4-hydroxy-6-oxotetrahydro-2H-pyran-2-yl)ethyl)-2-isopropyl-N,4-diphenyl-1H-pyrrole-3-carboxamide, reference compound], in assay [1], the “complex III activity (% of control) Mean (SEM)” value is on record as 80.98 (3.75) % of control.

Regarding `CNC(=O)C[C@H](O)C[C@H](O)/C=C/c1c(-c2ccc(F)cc2)nc(N(C)S(C)(=O)=O)nc1C(C)C` [rosuvastatin methylamide, (3R,5S,E)-7-(4-(4-fluorophenyl)-6-isopropyl-2-(N-methylmethylsulfonamido)-pyrimidin-5-yl)-3,5-dihydroxy-N-methylhept-6-enamide], the “complex III activity (% of control) Mean (SEM)” value in assay [1] is 83.54 (5.98) % of control. For the same compound, in assay [2], the “HMGR activity (% of control) Mean (SEM)” value is recorded as 82.82 (12.67) % of control.

Consider `CCC(C)(C)C(=O)O[C@H]1C[C@@H](C)C=C2C=C[C@H](C)[C@H](CC[C@@H](O)C[C@@H](O)CC#N)[C@H]21` [simvastatin nitrile, (1S,3R,7S,8S,8aR)-8-((3R,5S)-6-cyano-3,5-dihydroxyhexyl)-3,7-dimethyl-1,2,3,7,8,8a-hexahydronaphthalen-1-yl 2,2-dimethylbutanoate], for which the “complex III activity (% of control) Mean (SEM)” value in assay [1] was 53.24 (1.53) % of control. Further, in assay [2], the “HMGR activity (% of control) Mean (SEM)” value is listed as 85.05 (10.36) % of control.

As for `CC(C)c1nc(N(C)S(C)(=O)=O)nc(-c2ccc(F)cc2)c1/C=C/[C@@H](O)C[C@@H](O)CC#N` [rosuvastatin nitrile, N-(5-((3S,5S,E)-6-cyano-3,5-dihydroxyhex-1-en-1-yl)-4-(4-fluorophenyl)-6-isopropylpyrimidin-2-yl)-N-methylmethanesulfonamide], the “complex III activity (% of control) Mean (SEM)” value in assay [1] was 95.96 (11.43) % of control. In assay [2], the “HMGR activity (% of control) Mean (SEM)” value was 102.50 (7.87) % of control.

`CC(C)c1nc(N(C)S(C)(=O)=O)nc(-c2ccc(F)cc2)c1/C=C/[C@@H](O)C[C@@H](O)Cc1nnn[nH]1` [rosuvastatin tetrazole, N-(5-((3S,5S,E)-3,5-dihydroxy-6-(1H-tetrazol-5-yl)hex-1-en-1-yl)-4-(4-fluorophenyl)-6-isopropylpyrimidin-2-yl)-N-methylmethanesulfonamide]: the “complex III activity (% of control) Mean (SEM)” value in assay [1] is recorded as 85.24 (4.09) % of control. Also, in assay [2], the “HMGR activity (% of control) Mean (SEM)” value is given as 81.28 (4.70) % of control.

`CC(C)c1nc(N(C)S(C)(=O)=O)nc(-c2ccc(F)cc2)c1/C=C/[C@@H](O)C[C@@H](O)CC(=O)O` [rosuvastatin carboxylic acid, reference compound]: the “HMGR activity (% of control) Mean (SEM)” value in assay [2] is 24.09 (3.30) % of control.

Regarding `CCC(C)(C)C(=O)O[C@H]1C[C@@H](C)C=C2C=C[C@H](C)[C@H](CC[C@@H](O)C[C@@H](O)CC(=O)O)[C@H]21` [simvastatin carboxylic acid, reference compound], in assay [2], the “HMGR activity (% of control) Mean (SEM)” value was 63.10 (10.70) % of control. In addition, in assay [2] (dose-response curve of FIG. 2C, 95%-CI printed in the row below), the pIC50 was 7.41.

As for `CC[C@H](C)C(=O)O[C@H]1C[C@@H](C)C=C2C=C[C@H](C)[C@H](CC[C@@H](O)C[C@@H](O)CC(=O)NO)[C@H]21` [lovastatin hydroxamic acid, (1S,3R,7S,8S,8aR)-8-((3R,5R)-3,5-dihydroxy-7-(hydroxyamino)-7-oxoheptyl)-3,7-dimethyl-1,2,3,7,8,8a-hexahydronaphthalen-1-yl (S)-2-methylbutanoate], the “complex III activity (% of control) Mean (SEM)” value in assay [1] is 92.95 (10.32) % of control. The “HMGR activity (% of control) Mean (SEM)” value in assay [2] is given as 70.19 (6.79) % of control.

As for `CCC(C)(C)C(=O)O[C@H]1C[C@@H](C)C=C2C=C[C@H](C)[C@H](CC[C@@H](O)C[C@@H](O)Cc3nnn[nH]3)[C@H]21` [simvastatin tetrazole, (1S,3R,7S,8S,8aR)-8-((3R,5S)-3,5-dihydroxy-6-(1H-tetrazol-5-yl)hexyl)-3,7-dimethyl-1,2,3,7,8,8a-hexahydronaphthalen-1-yl 2,2-dimethylbutanoate], the “complex III activity (% of control) Mean (SEM)” value in assay [1] was 80.37 (5.13) % of control. Further, in assay [2], the “HMGR activity (% of control) Mean (SEM)” value was 72.43 (4.97) % of control.

With `CC[C@H](C)C(=O)O[C@H]1C[C@@H](C)C=C2C=C[C@H](C)[C@H](CC[C@@H]3C[C@@H](O)CC(=O)O3)[C@H]21` [lovastatin lactone, reference compound], the “complex III activity (% of control) Mean (SEM)” value in assay [1] is 63.21 (3.31) % of control.

As for `CCC(C)(C)C(=O)O[C@H]1C[C@@H](C)C=C2C=C[C@H](C)[C@H](CC[C@@H](O)C[C@@H](O)CC(=O)NC)[C@H]21` [simvastatin methylamide, (1S,3R,7S,8S,8aR)-8-((3R,5R)-3,5-dihydroxy-7-(methylamino)-7-oxoheptyl)-3,7-dimethyl-1,2,3,7,8,8a-hexahydronaphthalen-1-yl 2,2-dimethylbutanoate], the “complex III activity (% of control) Mean (SEM)” value in assay [1] is listed as 50.43 (5.71) % of control. Further, the “HMGR activity (% of control) Mean (SEM)” value in assay [2] is 92.40 (8.84) % of control.

Consider `CC(C)c1nc(N(C)S(C)(=O)=O)nc(-c2ccc(F)cc2)c1/C=C/[C@@H](O)C[C@@H](O)Cc1nc(=O)o[nH]1` [rosuvastatin oxo-oxadiazole, N-(5-((3S,5S,E)-3,5-dihydroxy-6-(5-oxo-2,5-dihydro-1,2,4-oxadiazol-3-yl)hex-1-en-1-yl)-4-(4-fluorophenyl)-6-isopropylpyrimidin-2-yl)-N-methylmethane Sulfonamide], for which, in assay [1], the “complex III activity (% of control) Mean (SEM)” value is 85.85 (10.62) % of control. Moreover, the “HMGR activity (% of control) Mean (SEM)” value in assay [2] is listed as 88.17 (4.21) % of control.

For the compound `CC[C@H](C)C(=O)O[C@H]1C[C@@H](C)C=C2C=C[C@H](C)[C@H](CC[C@@H](O)C[C@@H](O)CC(=O)O)[C@H]21` [lovastatin carboxylic acid, reference compound], in assay [2], the “HMGR activity (% of control) Mean (SEM)” value is reported as 68.18 (14.81) % of control.

For the compound `CCC(C)(C)C(=O)O[C@H]1C[C@@H](C)C=C2C=C[C@H](C)[C@H](CC[C@@H]3C[C@@H](O)CC(=O)O3)[C@H]21` [simvastatin lactone, reference compound], the “complex III activity (% of control) Mean (SEM)” value in assay [1] is 44.55 (6.27) % of control.

By pIC50 is commonly meant −log10 of the IC50, conventionally taken in molar units. Read a low pIC50 as a large IC50.

Values taken from US20190038588A1, “NOVEL CLASS OF COMPOUNDS FOR THE TREATMENT OF CARDIOVASCULAR DISEASE” (STICHTING KATHOLIEKE UNIVERSITEIT, priority 2016, published 2019).
